Experimental data taken from US8802713B2, “3-alkoxy-1-phenylpyrazole derivatives and pesticides” (Kumiai Chemical Industry Co., Ltd., priority 2007, dated 2014).
Like-named read-outs stand apart in the source and are kept apart here.

Assays:
brown rice planthopper = assay: Insecticidal test on brown rice planthopper; format: in vivo; conditions: 144 h
Method: A wettable powder prepared in accordance with Formulation Example 2 was diluted with water to a concentration of an active ingredient of 500 ppm. Rice sprouts were dipped in this solution and put in a plastic cup having a capacity of 60 mL. Ten third-instar larvae of brown rice planthopper were released in the cup, the cup was lidded and placed in a thermostatic chamber at 25° C. for 6 days, and the number of dead larvae were counted for calculation of the mortality by Equation 2. The test was carried out by one series system.

two-spotted spider mites = assay: Miticidal test on two-spotted spider mites (seedling dip); format: in vivo, Tetranvchus urticae; conditions: Glycine max, 312 h; 500 ppm active ingredient, soybean seedlings with imago mites dipped, 25° C., 13 days; read-out: protective value
Method: A wettable powder prepared in accordance with Formulation Example 2 was diluted with water to a concentration of an active ingredient of 500 ppm. Soybean seedlings which had been inoculated with imago two-spotted spider mites were dipped in the solution and dried in air. The treated soybean seedlings were placed in a thermostatic chamber at 25° C. for 13 days, and the number of live mites were assessed for calculation of the protective value by Equation 1. The test was carried out by one series system.

cotton aphid = assay: Insecticidal test on cotton aphid (seedling dip); format: in vivo; conditions: Aphis gossypii, in Cucumis sativus, 72 h
Method: A wettable powder prepared in accordance with Formulation Example 2 was diluted with water to a concentration of an active ingredient of 500 ppm. Cucumber seedlings which had been inoculated with larvae of cotton aphid were dipped in this solution and dried in air. The treated cucumber seedlings were placed in a thermostatic chamber at 25° C. for 3 days, and the live insects were counted for calculation of the mortality by Equation 2. The test was carried out by one series system.

diamondback moth = assay: Insecticidal test on diamondback moth; format: in vivo; conditions: Plutella xylostella, 144 h
Method: A wettable powder prepared in accordance with Formulation Example 2 was diluted with water to a concentration of an active ingredient of 500 ppm. Cabbage leaves were dipped in this solution and dried in air and then put in a plastic cup having a capacity of 60 mL. 10 second-instar larvae of diamondback moth were released in the cup and the cup was lidded. Then, the cup was placed in a thermostatic chamber at 25° C. for 6 days, and dead moths were counted for calculation of the mortality by Equation 2. The test was carried out by one series system.

SMILES	mortality at 500 ppm (brown rice planthopper)	pest or weed control at 500 ppm (two-spotted spider mites)	mortality at 500 ppm (cotton aphid)	mortality at 500 ppm (diamondback moth; in Brassica oleracea)	mortality at 500 ppm (diamondback moth; 500 ppm active ingredient, cabbage leaves dipped, second-instar larvae, 25° C., 6 days, read-out: mortality)
Cc1cc(F)c(-n2nc(OC(F)(F)C(F)OC(F)(F)F)cc2C#N)cc1[S+]([O-])CC(F)(F)F (stereo not shown) [1-669, 5-cyano-1-{2-fluoro-4-methyl-5-(2,2,2-trifluoroethylsulfinyl)phenyl}-3-{1,1,2-trifluoro-2-(trifluoromethoxy)ethoxy}pyrazole]	≥ 90%	≥ 90%	–	–	–
Cc1cc(F)c(-n2cc(C#N)c(OC(F)(F)C(F)OC(F)(F)F)n2)cc1[S+]([O-])CC(F)(F)F (stereo not shown) [1-1588, 4-cyano-1-{2-fluoro-4-methyl-5-(2,2,2-trifluoroethylsulfinyl)phenyl}-3-{1,1,2-trifluoro-2-(trifluoromethoxy)ethoxy}pyrazole]	–	≥ 90%	–	–	–
Cc1cc(F)c(-n2nc(OCC(F)(F)C(F)(F)F)cc2CO)cc1SCC(F)(F)F [1-201, 1-{2-fluoro-4-methyl-5-(2,2,2-trifluoroethylthio)phenyl}-5-hydroxymethyl-3-(2,2,3,3,3-pentafluoropropoxy)pyrazole]	≥ 90%	≥ 90%	–	–	–
Cc1cc(F)c(-n2nc(OC(F)(F)C(F)C(F)(F)F)cc2Cl)cc1[S+]([O-])CC(F)(F)F (stereo not shown) [1-254, 5-chloro 1-{2-fluoro-4-methyl-5-(2,2,2-trifluoroethylsulfinyl)phenyl}-3-(1,1,2,3,3,3-hexafluoropropoxy)pyrazole]	≥ 90%	≥ 90%	≥ 90%	–	–
Cc1cc(F)c(-n2nc(OC(F)(F)C(F)OC(F)(F)F)c(Cl)c2Cl)cc1[S+]([O-])CC(F)(F)F (stereo not shown) [1-292, 4,5-dichloro-1-{2-fluoro-4-methyl-5-(2,2,2-trifluoroethylsulfinyl)phenyl}-3-{1,1,2-trifluoro-2-(trifluoromethoxy)ethoxy}pyrazole]	≥ 90%	≥ 90%	–	≥ 90%	–
Cc1cc(F)c(-n2nc(OCC(F)(F)C(F)(F)F)c(Cl)c2Cl)cc1SCC(F)(F)F [1-111, 1-{2-fluoro-4-methyl-5-(2,2,2-trifluoroethylthio)phenyl}-4,5-dichloro-3-(2,2,3,3,3-pentafluoropropoxy)pyrazole]	≥ 90%	≥ 90%	–	–	–
Cc1cc(F)c(-n2nc(OCC(F)(F)C(F)(F)F)cc2C=O)cc1SCC(F)(F)F [1-199, 1-{2-fluoro-4-methyl-5-(2,2,2-trifluoroethylthio)phenyl}-5-formyl-3-(2,2,3,3,3-pentafluoropropoxy)pyrazole]	–	≥ 90%	–	≥ 90%	–
Cc1cc(F)c(-n2nc(OCCC(F)(F)F)cc2C)cc1[S+]([O-])CC(F)(F)F (stereo not shown) [1-250, 1-{2-fluoro-4-methyl-5-(2,2,2-trifluoroethylsulfinyl)phenyl}-5-methyl-3-(3,3,3-trifluoropropoxy)pyrazole]	≥ 90%	≥ 90%	≥ 90%	–	–
Cc1cc(F)c(-n2nc(OCCC(F)(F)F)cc2C)cc1SCC(F)(F)F [1-249, 1-{2-fluoro-4-methyl-5-(2,2,2-trifluoroethylthio)phenyl}-5-methyl-3-(3,3,3-trifluoropropoxy)pyrazole]	≥ 90%	≥ 90%	–	–	–
Cc1cc(F)c(-n2nc(OCC(F)(F)C(F)(F)F)c(F)c2N)cc1SCC(F)(F)F [1-41, 5-amino-1-{2-fluoro-4-methyl-5-(2,2,2-trifluoroethylthio)phenyl}-4-fluoro-3-(2,2,3,3,3-pentafluoropropoxy)pyrazole]	≥ 90%	–	–	–	≥ 90%
Cc1cc(F)c(-n2cc(Cl)c(OC(F)(F)C(F)OC(F)(F)F)n2)cc1SCC(F)(F)F (stereo not shown) [1-289, 4-chloro-1-{2-fluoro-4-methyl-5-(2,2,2-trifluoroethylthio)phenyl}-3-{1,1,2-trifluoro-2-(trifluoromethoxy)ethoxy}pyrazole]	≥ 90%	≥ 90%	–	–	–
Cc1cc(F)c(-n2nc(OC(F)(F)C(F)OC(F)(F)F)cc2CF)cc1[S+]([O-])CC(F)(F)F (stereo not shown) [1-1580, 1-{2-fluoro-4-methyl-5-(2,2,2-trifluoroethylsulfinyl)phenyl}-5-fluoromethyl-3-{1,1,2-trifluoro-2-(trifluoromethoxy)ethoxy}pyrazole]	≥ 90%	≥ 90%	≥ 90%	–	–
CNc1c(Cl)c(OC(F)(F)C(F)C(F)(F)F)nn1-c1cc(SCC(F)(F)F)c(C)cc1F (stereo not shown) [1-261, 4-chloro-1-{2-fluoro-4-methyl-5-(2,2,2-trifluoroethylthio)phenyl}-3-(1,1,2,3,3,3-hexafluoropropoxy)-5-methylaminopyrazole]	≥ 90%	≥ 90%	–	≥ 90%	–
Cc1cc(F)c(-n2nc(OCC(F)(F)C(F)(F)F)c(Cl)c2N)cc1SCC(F)(F)F [1-43, 5-amino-4-chloro-1-{2-fluoro-4-methyl-5-(2,2,2-trifluoroethylthio)phenyl}-3-(2,2,3,3,3-pentafluoropropoxy)pyrazole]	≥ 90%	≥ 90%	–	≥ 90%	–
Cc1cc(F)c(-n2nc(OC(F)(F)C(F)C(F)(F)F)c(Cl)c2N)cc1[S+]([O-])CC(F)(F)F (stereo not shown) [1-264, 5-amino-4-chloro 1-{2-fluoro-4-methyl-5-(2,2,2-trifluoroethylsulfinyl)phenyl}-3-(1,1,2,3,3,3-hexafluoropropoxy)pyrazole]	≥ 90%	≥ 90%	–	≥ 90%	–
Cc1cc(F)c(-n2nc(OC(F)(F)C(F)OC(F)(F)F)c(Cl)c2Cl)cc1SCC(F)(F)F (stereo not shown) [1-291, 4,5-dichloro-1-{2-fluoro-4-methyl-5-(2,2,2-trifluoroethylthio)phenyl}-3-{1,1,2-trifluoro-2-(trifluoromethoxy)ethoxy}pyrazole]	≥ 90%	≥ 90%	–	≥ 90%	–
Cc1cc(F)c(-n2nc(OCC(F)(F)C(F)(F)F)cc2C#N)cc1[S+]([O-])CC(F)(F)F (stereo not shown) [1-134, 5-cyano-1-{2-fluoro-4-methyl-5-(2,2,2-trifluoroethylsulfinyl)phenyl}-3-(2,2,3,3,3-pentafluoropropoxy)pyrazole]	≥ 90%	≥ 90%	–	–	–
Cc1cc(F)c(-n2ccc(C(F)(F)F)n2)cc1SCC(F)(F)F [V-613, reference compound]	–	–	0%	–	–
CNc1c(Cl)c(OC(F)(F)C(F)C(F)(F)F)nn1-c1cc([S+]([O-])CC(F)(F)F)c(C)cc1F (stereo not shown) [1-262, 4-chloro-1-{2-fluoro-4-methyl-5-(2,2,2-trifluoroethylsulfinyl)phenyl}-3-(1,1,2,3,3,3-hexafluoropropoxy)-5-methylaminopyrazole]	≥ 90%	≥ 90%	–	≥ 90%	–
Cc1cc(F)c(-n2nc(OC(F)(F)C(F)OC(F)(F)F)cc2C(F)F)cc1[S+]([O-])CC(F)(F)F (stereo not shown) [1-1532, 5-difluoromethyl-1-{2-fluoro-4-methyl-5-(2,2,2-trifluoroethylsulfinyl)phenyl}-3-{1,1,2-trifluoro-2-(trifluoromethoxy)ethoxy}pyrazole]	≥ 90%	≥ 90%	–	–	–
Cc1cc(F)c(-n2nc(OC(F)(F)C(F)C(F)(F)F)c(Cl)c2N)cc1SCC(F)(F)F (stereo not shown) [1-263, 5-amino-4-chloro-1-{2-fluoro-4-methyl-5-(2,2,2-trifluoroethylthio)phenyl}-3-(1,1,2,3,3,3-hexafluoropropoxy)pyrazole]	≥ 90%	≥ 90%	–	≥ 90%	–
Cc1cc(F)c(-n2cc(Cl)c(OC(F)(F)C(F)OC(F)(F)F)n2)cc1[S+]([O-])CC(F)(F)F (stereo not shown) [1-290, 4-chloro-1-{2-fluoro-4-methyl-5-(2,2,2-trifluoroethylsulfinyl)phenyl}-3-{1,1,2-trifluoro-2-(trifluoromethoxy)ethoxy}pyrazole]	≥ 90%	≥ 90%	–	–	–
Cc1cc(F)c(-n2ccc(Oc3ccc(C(F)(F)F)cc3)n2)cc1[S+]([O-])CC(F)(F)F (stereo not shown) [1-1586, 1-{2-fluoro-4-methyl-5-(2,2,2-trifluoroethylsulfinyl)phenyl}-3-{4-(trifluoromethyl)phenoxy}pyrazole]	≥ 90%	≥ 90%	–	–	–
Cc1cc(F)c(-n2nc(OCC(F)(F)C(F)(F)F)cc2C(=O)O)cc1SCC(F)(F)F [1-145, 1-{2-fluoro-4-methyl-5-(2,2,2-trifluoroethylthio)phenyl}-3-(2,2,3,3,3-pentafluoropropoxy)pyrazole-5-carboxylic acid]	≥ 90%	–	–	–	–
